For twelve molecules, IC50 results are on record in US9079930B2, “Substituted pyrimidines” (MERCK SHARP & DOHME CORP., priority 2011, dated 2015).

Structures are written as SMILES.

The experiment deals with T1, FLAG-tagged full length PHD2 (Homo sapiens, UniProt Q9GZT9).
T1 construct: FLAG-tagged full length PHD2 expressed in and purified from baculovirus-infected Sf9 cells; FLAG; made in house; host or cells: baculovirus-infected Sf9 cells
T1 sequence (Q9GZT9 whole entry): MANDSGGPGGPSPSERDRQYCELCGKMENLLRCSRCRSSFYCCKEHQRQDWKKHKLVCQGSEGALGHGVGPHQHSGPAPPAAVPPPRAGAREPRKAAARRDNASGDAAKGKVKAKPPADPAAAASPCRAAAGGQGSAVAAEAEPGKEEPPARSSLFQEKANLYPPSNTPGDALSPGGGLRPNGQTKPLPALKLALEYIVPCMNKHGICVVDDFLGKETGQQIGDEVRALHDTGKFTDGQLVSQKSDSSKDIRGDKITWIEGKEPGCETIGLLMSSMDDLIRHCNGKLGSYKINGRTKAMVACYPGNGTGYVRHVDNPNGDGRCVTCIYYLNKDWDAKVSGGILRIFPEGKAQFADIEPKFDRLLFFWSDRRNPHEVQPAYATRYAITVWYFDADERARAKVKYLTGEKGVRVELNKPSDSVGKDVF
The experiment in a line: PHD2 inhibition assay (time resolved fluorescence, HIF-1α peptide hydroxylation, VHL complex detection). It is filed as biochemical. The conditions noted are these: 0.2 μM 2-oxoglutarate, 0.5 μM HIF-1α peptide. How it is done: To each well of a 96-well plate was added 1 μL of test compound in DMSO and 20 μl of assay buffer (50 mM Tris pH 7.4/0.01% Tween-20/0.1 mg/ml bovine serum albumin/10 μM ferrous sulfate/i mM sodium ascorbate/20 μg/ml catalase) containing 0.15 μg/ml FLAG-tagged full length PHD2 expressed in and purified from baculovirus-infected Sf9 cells. After a 30 min preincubation at room temperature, the enzymatic reactions were initiated by the addition of 4 μL of substrates (final concentrations of 0.2 μM 2-oxoglutarate and 0.5 μM HIF-1α peptide biotinyl-DLDLEMLAPYIPMDDDFQL (SEQ ID NO: 1)). After 2 hr at room temperature, the reactions were terminated and signals were developed by the addition of a 25 μL quench/detection mix to a final concentration of 1 mM ortho-phenanthroline, 0.1 mM EDTA, 0.5 nM anti-(His)6 LANCE reagent (Perkin-Elmer Life Sciences), 100 nM AF647-labeled streptavidin (Invitrogen), and 2 μg/ml (His)6-VHL complex (S. Tan (2001) Protein Expr. Purif. 21, 224-234). The ratio of time resolved fluorescence signals at 665 and 620 nm was determined, and percent inhibition was calculated relative to an uninhibited control sample run in parallel.
As usually defined, the IC50 is the midpoint of a concentration-inhibition curve. Lower therefore signals greater potency in that assay. In the case of `CCOP(=O)(O)c1ccc(C(C)NC(=O)c2cnc(-c3ccccn3)nc2O)cc1` (stereo not drawn) [Compound 3-3, Ethyl hydrogen 4-(1-(4-hydroxy-2-(pyridin-2-yl)pyrimidine-5-carboxamido)ethyl)phenylphosphonate], the IC50 fell in the range of 100 to 10000 nM.
Consider `COc1ccc(C(NC(=O)c2cnc(-c3ccccn3)nc2O)c2ccc(P(=O)(O)O)cc2)cc1` (stereo not drawn) [Compound 1-1-2, 4-((4-hydroxy-2-(pyridin-2-yl)pyrimidine-5-carboxamido)(4-methoxyphenyl)methyl)phenylphosphonic acid], for which the IC50 fell in the range of 0.5 to 20 nM.
The figure for `CP(=O)(O)c1ccc([C@H](NC(=O)c2cnc(-n3cccn3)nc2O)c2ccc(F)cc2)cc1` [Compound 18-1, 4-((R)-(4-fluorophenyl)(4-hydroxy-2-(1H-pyrazol-1-yl)pyrimidine-5-carboxamido)methyl)phenyl(methyl)phosphinic acid] is 0.5 to 20 nM; for `CP(=O)(O)c1cccc([C@@H](NC(=O)c2cnc(-n3cccn3)nc2O)c2ccccc2)c1` [Compound 25-1, 3-((S)-(4-hydroxy-2-(1H-pyrazol-1-yl)pyrimidine-5-carboxamido)(phenyl)methyl)phenyl(methyl)phosphinic acid] it is 0.5 to 20 nM.
Regarding `CCOP(=O)(O)c1ccc(C(NC(=O)c2cnc(-c3ccccn3)nc2O)c2ccccc2)cn1` (stereo not drawn) [Compound 4-2, Ethyl hydrogen 5-((4-hydroxy-2-(pyridin-2-yl)pyrimidine-5-carboxamido)(phenyl)methyl)pyridin-2-ylphosphonate], the IC50 was 0.5 to 20 nM.
The figure for `CP(=O)(O)c1ccc([C@@H](NC(=O)c2cnc(-n3cccn3)nc2O)c2ccc(F)cc2F)cc1` [Compound 20-1, 4-((R)-(2,4-difluorophenyl)(4-hydroxy-2-(1H-pyrazol-1-yl)pyrimidine-5-carboxamido)methyl)phenyl(methyl)phosphinic acid] is 0.5 to 20 nM.
Molecule `CC(NC(=O)c1cnc(-n2cccn2)nc1O)c1ccc(P(=O)(O)O)cc1` (stereo not drawn) [Compound 15-1, 4-(1-(4-hydroxy-2-(1H-pyrazol-1-yl)pyrimidine-5-carboxamido)ethyl)phenylphosphonic acid] registered an IC50 of 20 to 100 nM.
The figure for `CCOP(C)(=O)c1ccc(C(NC(=O)c2cnc(-c3ccccn3)nc2O)c2ccccc2)cc1` (stereo not drawn) [Compound 2-4, ethyl 4-((4-hydroxy-2-(pyridin-2-yl)pyrimidine-5-carboxamido)(phenyl)methyl)phenyl(methyl)phosphinate] is 0.5 to 20 nM; for `C[C@@H](NC(=O)c1cnc(-n2cccn2)nc1O)c1ccc(P(=O)(O)O)cc1` [Compound 15-2, (R)-4-(1-(4-hydroxy-2-(1H-pyrazol-1-yl)pyrimidine-5-carboxamido)ethyl)phenyl phosphonic acid] it is 0.5 to 20 nM.
With `COc1ccc(C(NC(=O)c2cnc(-c3cccnn3)nc2O)P(=O)(O)O)cc1` (stereo not drawn) [Compound 36-1, (4-Hydroxy-2-(pyridazin-3-yl)pyrimidine-5-carboxamido)(4-methoxyphenyl)methyl phosphonic acid], the IC50 lay in the range of 20 to 100 nM.
For `CCOP(=O)(OCC)c1ccc(C(C(=O)Nc2cnc(-n3cccn3)nc2O)c2ccccc2)cc1` (stereo not drawn) [Compound 14-1, Diethyl 4-(2-(4-hydroxy-2-(1H-pyrazol-1-yl)pyrimidin-5-ylamino)-2-oxo-1-phenylethyl)phenylphosphonate], the IC50 was in the range of 0.5 to 20 nM.
On to `CC(NC(=O)c1cnc(-c2cccnn2)nc1O)c1ccc(P(=O)(O)O)cc1` (stereo not drawn) [Compound 3-3a, 4-(1-(4-Hydroxy-2-(pyridazin-3-yl)pyrimidine-5-carboxamido)ethyl)phenylphosphonic acid], for which the IC50 lay within 100 to 10000 nM.
